Reference: ChEMBL document CHEMBL5126521, “Analgesic Opioid Ligand Discovery Based on Nonmorphinan Scaffolds Derived from Natural Sources” (J Med Chem, 2022)

What was measured:
[1] = molecular target: Delta-type opioid receptor (Rattus norvegicus, UniProt P33533); experiment: Agonist activity at recombinant rat DOP stably expressed in CHO-K1 cell membrane assessed as [35S]GTPgammaS binding; assay type: functional, cell membranes
Mus musculus [2] = experiment: Antinociceptive activity in po dosed mouse by tail flick assay; assay type: functional
Mus musculus [3] = experiment: Antinociceptive activity in sc dosed mouse; assay type: functional
[4] = molecular target: Kappa-type opioid receptor (Cavia porcellus, UniProt P41144); experiment: Displacement of [3H]U69593 from guinea pig brain membrane KOP incubated for 1 hr by scintillation counter analysis; assay type: cell membranes
Kappa-type opioid receptor (Cavia porcellus, UniProt P41144), sequence (P41144 whole entry): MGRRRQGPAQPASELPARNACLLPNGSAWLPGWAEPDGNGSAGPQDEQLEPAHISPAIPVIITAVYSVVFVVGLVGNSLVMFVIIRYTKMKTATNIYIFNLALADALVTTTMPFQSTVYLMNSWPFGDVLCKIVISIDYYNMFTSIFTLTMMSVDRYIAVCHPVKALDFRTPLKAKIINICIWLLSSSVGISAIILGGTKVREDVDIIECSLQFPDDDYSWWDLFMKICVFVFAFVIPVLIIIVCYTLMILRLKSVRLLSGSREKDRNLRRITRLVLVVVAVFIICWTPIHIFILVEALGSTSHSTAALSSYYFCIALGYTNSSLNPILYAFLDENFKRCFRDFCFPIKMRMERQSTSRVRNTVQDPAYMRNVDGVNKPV

[5] = Toxicity in sc dosed mouse assessed as antinociceptive activity tolerance; assay type: organism-based; settings: in vivo
[6] = Toxicity in po dosed mouse assessed as antinociceptive activity tolerance by tail flick assay; assay type: organism-based; settings: in vivo
Mu-type opioid receptor [7] = molecular target: T1, Mu-type opioid receptor (Cavia porcellus, UniProt P97266); experiment: Displacement of [3H]DAMGO from guinea pig brain membrane MOP incubated for 1 hr by scintillation counter analysis; assay type: cell membranes
T1 sequence (P97266 whole entry): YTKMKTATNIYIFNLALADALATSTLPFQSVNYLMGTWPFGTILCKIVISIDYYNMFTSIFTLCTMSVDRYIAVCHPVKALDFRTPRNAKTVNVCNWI

[8] = Displacement of [3H]DPDPE from guinea pig brain membrane DOP incubated for 2.5 hr by scintillation counter analysis; assay type: cell membranes, Cavia porcellus
Mu-type opioid receptor [9] = molecular target: T2, Mu-type opioid receptor (Rattus norvegicus, UniProt P33535); experiment: Agonist activity at recombinant rat MOP stably expressed in CHO-K1 cell membrane assessed as [35S]GTPgammaS binding; assay type: functional, cell membranes
T2 sequence (P33535 whole entry): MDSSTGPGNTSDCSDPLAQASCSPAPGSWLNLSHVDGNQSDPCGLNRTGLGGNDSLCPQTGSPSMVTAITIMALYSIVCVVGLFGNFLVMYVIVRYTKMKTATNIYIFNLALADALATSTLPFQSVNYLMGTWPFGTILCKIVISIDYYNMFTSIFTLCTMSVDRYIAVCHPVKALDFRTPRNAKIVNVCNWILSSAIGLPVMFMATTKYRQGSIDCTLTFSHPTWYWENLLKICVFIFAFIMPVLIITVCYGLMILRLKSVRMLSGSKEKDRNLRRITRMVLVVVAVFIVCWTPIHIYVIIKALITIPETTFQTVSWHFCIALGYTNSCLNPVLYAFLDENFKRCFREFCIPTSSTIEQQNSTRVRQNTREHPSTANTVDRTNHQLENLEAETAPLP

Mus musculus [10] = experiment: Antinociceptive activity in Std-ddY mouse at 100 mmHg pressure administered icv by tail pressure test; assay type: functional
Mus musculus [11] = experiment: Antinociceptive activity in ddY mouse assessed as tail-flick latency administered icv by tail flick test; assay type: functional
Mus musculus [12] = experiment: Antinociceptive activity in Std-ddY mouse at 100 mmHg pressure administered sc by tail pressure test; assay type: functional
Mus musculus [13] = experiment: Antinociceptive activity in Std-ddY mouse at 100 mmHg pressure administered po by tail pressure test; assay type: functional
Mus musculus [14] = experiment: Antinociceptive activity in ddY mouse assessed as tail-flick latency administered it by tail flick test; assay type: functional
Mus musculus [15] = experiment: Antinociceptive activity in Std-ddY mouse at 100 mmHg pressure administered IT by tail pressure test; assay type: functional
Mu-type opioid receptor [16] = molecular target: T3, Mu-type opioid receptor (Homo sapiens, UniProt P35372); experiment: Displacement of [3H]DAMGO from human MOP expressed in CHO-K1 cell membrane incubated for 60 mins by Microscint-counting analysis; assay type: cell membranes
T3 sequence (P35372 whole entry): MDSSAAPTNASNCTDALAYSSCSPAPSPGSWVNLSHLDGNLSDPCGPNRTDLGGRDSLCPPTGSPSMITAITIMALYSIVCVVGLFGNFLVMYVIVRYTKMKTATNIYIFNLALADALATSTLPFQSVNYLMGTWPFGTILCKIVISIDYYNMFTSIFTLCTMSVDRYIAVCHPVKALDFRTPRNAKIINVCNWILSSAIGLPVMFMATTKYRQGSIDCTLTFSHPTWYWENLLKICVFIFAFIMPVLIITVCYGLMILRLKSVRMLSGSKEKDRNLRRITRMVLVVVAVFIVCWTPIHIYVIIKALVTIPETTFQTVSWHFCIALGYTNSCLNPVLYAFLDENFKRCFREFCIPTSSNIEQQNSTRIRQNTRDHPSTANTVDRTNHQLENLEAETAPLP

[17] = molecular target: T4, Kappa-type opioid receptor (Homo sapiens, UniProt P41145); experiment: Displacement of [3H]U69593 from human KOP expressed in CHO-K1 cell membrane incubated for 60 mins by Microscint-counting analysis; assay type: cell membranes
T4 sequence (P41145 whole entry): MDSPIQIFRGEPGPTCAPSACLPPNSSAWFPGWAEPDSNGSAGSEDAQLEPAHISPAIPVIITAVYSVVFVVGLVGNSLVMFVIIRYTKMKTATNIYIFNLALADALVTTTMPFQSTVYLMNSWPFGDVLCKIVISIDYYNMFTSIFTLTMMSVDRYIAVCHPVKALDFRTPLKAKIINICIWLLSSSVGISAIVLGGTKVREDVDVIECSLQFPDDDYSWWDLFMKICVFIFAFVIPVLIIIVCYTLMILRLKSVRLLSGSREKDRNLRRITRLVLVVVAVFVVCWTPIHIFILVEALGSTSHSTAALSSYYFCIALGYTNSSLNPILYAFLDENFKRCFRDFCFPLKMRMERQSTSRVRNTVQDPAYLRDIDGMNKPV

Rattus norvegicus [18] = experiment: Antinociceptive activity in Sprague-Dawley rat assessed as tail flick response in warm water administered icv; assay type: functional
Mu-type opioid receptor [19] = molecular target: T3, Mu-type opioid receptor; experiment: Agonist activity at human MOP expressed in CHO-K1 cell membrane assessed as [35S]GTPgammaS binding; assay type: functional, cell membranes
[20] = Stability in human plasma assessed as half life; assay type: ADME, cell-free
Rattus norvegicus [21] = experiment: Antinociceptive activity in Sprague-Dawley rat assessed as tail flick response in warm water administered iv; assay type: functional
[22] = molecular target: T5, Delta-type opioid receptor (Homo sapiens, UniProt P41143); experiment: Displacement of [3H]DPDPE from human DOP expressed in CHO-K1 cell membrane incubated for 60 mins by Microscint-counting analysis; assay type: cell membranes
T5 sequence (P41143 whole entry): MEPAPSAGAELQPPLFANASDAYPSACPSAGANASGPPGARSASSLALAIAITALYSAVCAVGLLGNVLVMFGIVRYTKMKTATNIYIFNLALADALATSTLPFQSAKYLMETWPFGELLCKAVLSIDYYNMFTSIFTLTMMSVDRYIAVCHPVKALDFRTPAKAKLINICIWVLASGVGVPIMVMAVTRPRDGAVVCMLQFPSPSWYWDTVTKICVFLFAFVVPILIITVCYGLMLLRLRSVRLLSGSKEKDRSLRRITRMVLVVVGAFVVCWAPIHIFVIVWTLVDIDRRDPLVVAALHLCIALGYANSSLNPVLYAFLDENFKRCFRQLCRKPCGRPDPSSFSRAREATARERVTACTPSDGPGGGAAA

[23] = Stability in rat plasma assessed as half life; assay type: ADME, cell-free
Mu-type opioid receptor [24] = molecular target: T3, Mu-type opioid receptor; experiment: Agonist activity at human MOP expressed in CHO-K1 cell membrane assessed as [35S]GTPgammaS binding relative to control; assay type: functional, cell membranes; settings: filed as agonist
Mus musculus [25] = experiment: Antinociceptive activity in thermal hyperalgesia mouse model administered sc; assay type: functional
Mu-type opioid receptor [26] = molecular target: T6, Mu-type opioid receptor (Mus musculus, UniProt P42866); experiment: Antagonist activity at mouse vas deferns MOP; assay type: functional
T6 sequence (P42866 whole entry): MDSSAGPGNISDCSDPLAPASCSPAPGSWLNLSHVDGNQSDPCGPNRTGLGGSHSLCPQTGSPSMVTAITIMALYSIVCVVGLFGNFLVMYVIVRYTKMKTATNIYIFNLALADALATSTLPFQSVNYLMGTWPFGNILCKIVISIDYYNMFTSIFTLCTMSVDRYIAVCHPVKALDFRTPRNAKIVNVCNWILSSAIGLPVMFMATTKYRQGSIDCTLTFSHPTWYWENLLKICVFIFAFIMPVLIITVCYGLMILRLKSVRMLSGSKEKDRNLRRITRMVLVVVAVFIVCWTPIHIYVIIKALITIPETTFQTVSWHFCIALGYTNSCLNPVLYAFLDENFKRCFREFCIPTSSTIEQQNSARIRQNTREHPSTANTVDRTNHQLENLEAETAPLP

Mu-type opioid receptor [27] = molecular target: T3, Mu-type opioid receptor; experiment: Binding affinity to MOP (unknown origin)
[28] = molecular target: T5, Delta-type opioid receptor; experiment: Binding affinity to DOP (unknown origin)
Rattus norvegicus [29] = experiment: Antinociceptive activity in rat administered IT; assay type: functional
Mus musculus [30] = experiment: Antinociceptive activity in mechanical allodynia mouse model administered sc; assay type: functional
Mus musculus [31] = experiment: Antinociceptive activity in mouse administered sc by tail pressure test; assay type: functional
Mus musculus [32] = experiment: Antinociceptive activity in mouse administered icv; assay type: functional
Mus musculus [33] = experiment: Antinociceptive activity in mouse administered po by tail pressure test; assay type: functional
Mu-type opioid receptor [34] = molecular target: T1, Mu-type opioid receptor; experiment: Antagonist activity at guinea pig ileum MOP; assay type: functional, tissue-based
Mu-type opioid receptor [35] = molecular target: T2, Mu-type opioid receptor; experiment: Displacement of [3H]DAMGO from rat MOP stably expressed in CHO cell membrane; assay type: cell membranes
[36] = molecular target: Kappa-type opioid receptor (Rattus norvegicus, UniProt P34975); experiment: Displacement of [3H]diprenorphine from rat KOP stably expressed in CHO cell membrane; assay type: cell membranes
Kappa-type opioid receptor (Rattus norvegicus, UniProt P34975), sequence (P34975 whole entry): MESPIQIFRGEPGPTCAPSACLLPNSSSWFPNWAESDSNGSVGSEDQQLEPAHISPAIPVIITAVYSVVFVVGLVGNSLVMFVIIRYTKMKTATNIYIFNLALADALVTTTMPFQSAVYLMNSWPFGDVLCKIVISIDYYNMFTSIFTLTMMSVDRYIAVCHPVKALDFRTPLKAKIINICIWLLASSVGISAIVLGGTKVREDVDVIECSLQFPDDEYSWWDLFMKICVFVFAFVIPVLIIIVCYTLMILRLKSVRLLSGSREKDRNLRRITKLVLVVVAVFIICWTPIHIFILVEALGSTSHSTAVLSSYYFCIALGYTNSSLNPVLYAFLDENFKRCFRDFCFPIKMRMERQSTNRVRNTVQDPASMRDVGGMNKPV

Mu-type opioid receptor [37] = molecular target: T3, Mu-type opioid receptor; experiment: Antagonist activity at human MOP stably expressed in CHO cell membrane assessed as [35S]GTPgammaS binding; assay type: functional, cell membranes
Mus musculus [38] = experiment: Antinociceptive activity in icv dosed C57BL/6J mouse assessed as tail withdrawal latency from warm water; assay type: functional
[39] = molecular target: T4, Kappa-type opioid receptor; experiment: Binding affinity to human KOP stably expressed in CHO cell membrane assessed as [35S]GTPgammaS binding; assay type: cell membranes; settings: filed as antagonist
[40] = molecular target: Kappa-type opioid receptor (Mus musculus, UniProt P33534); experiment: Displacement of [3H]U-69593 from mouse spinal cord KOP measured after 60 mins by liquid scintillation counter analysis; assay type: tissue-based
Kappa-type opioid receptor (Mus musculus, UniProt P33534), sequence (P33534 whole entry): as the sequence (P34975 whole entry) above, with E11D, A17S, P51S, V308A counted along it

Mus musculus [41] = experiment: Antinociceptive activity in mouse administered sc; assay type: functional
Mus musculus [42] = experiment: Antinociceptive activity in mouse administered IT; assay type: functional
Mu-type opioid receptor [43] = molecular target: T6, Mu-type opioid receptor; experiment: Displacement of [3H]DAMGO from mouse spinal cord MOP measured after 60 mins by liquid scintillation counter analysis; assay type: tissue-based
Mu-type opioid receptor [44] = molecular target: T6, Mu-type opioid receptor; experiment: Displacement of [3H]DAMGO from mouse brain cerebellum MOP incubated for 2 hrs by liquid scintillation counter analysis; assay type: tissue-based
[45] = molecular target: T7, Delta-type opioid receptor (Mus musculus, UniProt P32300); experiment: Displacement of [3H]deltorphin-II from mouse spinal cord DOP measured after 60 mins by liquid scintillation counter analysis; assay type: tissue-based
T7 sequence (P32300 whole entry): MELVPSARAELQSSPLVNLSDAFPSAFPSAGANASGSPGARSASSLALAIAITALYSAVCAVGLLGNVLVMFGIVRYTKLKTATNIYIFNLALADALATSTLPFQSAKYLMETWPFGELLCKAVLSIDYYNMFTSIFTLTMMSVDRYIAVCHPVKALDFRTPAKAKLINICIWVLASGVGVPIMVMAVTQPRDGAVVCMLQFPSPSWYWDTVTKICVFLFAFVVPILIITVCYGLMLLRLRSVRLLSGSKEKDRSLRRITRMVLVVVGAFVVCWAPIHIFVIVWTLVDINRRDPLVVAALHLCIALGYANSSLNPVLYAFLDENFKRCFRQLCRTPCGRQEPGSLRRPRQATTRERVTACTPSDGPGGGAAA

[46] = molecular target: T7, Delta-type opioid receptor; experiment: Displacement of [3H]DPDPE from mouse brain cerebellum DOP incubated for 2 hrs by liquid scintillation counter analysis; assay type: tissue-based
Mus musculus [47] = experiment: Antinociceptive activity in mouse administered po; assay type: functional

Delta-type opioid receptor (Rattus norvegicus, UniProt P33533), sequence (P33533 whole entry): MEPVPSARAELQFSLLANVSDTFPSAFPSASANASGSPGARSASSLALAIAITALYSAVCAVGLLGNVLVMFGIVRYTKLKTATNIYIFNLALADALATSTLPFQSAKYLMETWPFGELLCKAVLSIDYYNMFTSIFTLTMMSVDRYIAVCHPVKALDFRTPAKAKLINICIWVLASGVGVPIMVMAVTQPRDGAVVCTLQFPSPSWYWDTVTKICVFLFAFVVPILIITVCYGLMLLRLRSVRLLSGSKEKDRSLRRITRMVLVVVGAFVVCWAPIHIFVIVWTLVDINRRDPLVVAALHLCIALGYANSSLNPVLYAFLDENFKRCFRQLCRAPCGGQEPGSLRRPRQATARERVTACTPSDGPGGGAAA

Work on CC[C@@H]1CN2CC[C@]3(O)c4c(ccc(F)c4OC)N[C@@H]3[C@@H]2C[C@@H]1/C(=C\OC)C(=O)OC yielded an EC50 [1] of 61 nM, an ED50 (Mus musculus [2]) of 0.26 mg/kg and an ED50 (Mus musculus [3]) of 0.06 mg/kg. For the same compound, the Ki [4] was 29 nM, the ED50 [5] was 0.09 mg/kg and the ED50 [6] was 0.45 mg/kg. The Ki (Mu-type opioid receptor [7]) was 2.1 nM, the Ki [8] was 7 nM and the EC50 (Mu-type opioid receptor [9]) was 18 nM.
N=C(N)NCCC[C@@H](NC(=O)[C@@H](N)Cc1ccc(O)cc1)C(=O)N[C@@H](Cc1ccccc1)C(=O)NCCC(=O)O showed an ED50 (Mus musculus [10]) of 3.1 pmol, an ED50 (Mus musculus [11]) of 1.3 pmol and an ED50 (Mus musculus [12]) of 0.8 µmol/kg. The ED50 (Mus musculus [13]) was 70.1 µmol/kg, the ED50 (Mus musculus [14]) was 0.3 pmol and the ED50 (Mus musculus [15]) was 0.5 pmol.
CC[C@@H]1CN2CC[C@]3(O)c4c(cccc4OC)N[C@@H]3[C@@H]2C[C@@H]1/C(=C\OC)C(=O)OC gave an EC50 [1] of 1490 nM, an ED50 (Mus musculus [2]) of 1.3 mg/kg and an ED50 (Mus musculus [3]) of 0.3 mg/kg. The Ki [4] was 55 nM, the ED50 [5] was 0.35 mg/kg and the ED50 [6] was 2.2 mg/kg. It also gave a Ki (Mu-type opioid receptor [7]) of 6.4 nM, a Ki [8] of 16 nM and an EC50 (Mu-type opioid receptor [9]) of 250 nM.
Compound NC(=O)CNC(=O)[C@@H]1CCC(=O)NCCCC[C@@H](NC(=O)[C@@H](N)Cc2ccc(O)cc2)C(=O)N[C@@H](Cc2c[nH]c3ccccc23)C(=O)N[C@@H](Cc2ccccc2)C(=O)N1 has a Ki (Mu-type opioid receptor [16]) of 0.68 nM, a Ki [17] of 5120 nM and an ED50 (Rattus norvegicus [18]) of 0.019 nmol. It also gave an EC50 (Mu-type opioid receptor [19]) of 1.01 nM, a half-life [20] of 150 h and an ED50 (Rattus norvegicus [21]) of 1.5 mg/kg. The Ki [22] was 127 nM, the half-life [23] was 81 h and the Emax (Mu-type opioid receptor [24]) was 100%.
Work on NCCCC[C@H](NC(=O)[C@H](Cc1ccccc1)NC(=O)[C@@H](CCCN=C(N)N)NC(=O)[C@@H](N)Cc1ccc(O)cc1)C(N)=O yielded an ED50 (Mus musculus [25]) of 0.06 pmol, an IC50 (Mu-type opioid receptor [26]) of 781 nM and a Ki (Mu-type opioid receptor [27]) of 0.14 nM. For the same compound, the Ki [28] was 19200 nM, the ED50 (Rattus norvegicus [29]) was 2.37 pmol and the ED50 (Mus musculus [30]) was 4.2 pmol.
With N=C(N)NCCC[C@@H](NC(=O)[C@@H](N)Cc1ccc(O)cc1)C(=O)N[C@@H](Cc1ccccc1)C(N)=O the ED50 (Mus musculus [31]) was 1 µmol/kg, the ED50 (Mus musculus [32]) was 210 pmol and the ED50 (Mus musculus [33]) was 103 µmol/kg. It also gave an IC50 (Mu-type opioid receptor [34]) of 240 nM.
In the case of C[C@@H]1C(=O)N[C@@H](Cc2ccccc2)C(=O)N[C@H](Cc2c[nH]c3ccccc23)C(=O)N[C@@H](Cc2ccccc2)C(=O)N1C, the Ki (Mu-type opioid receptor [35]) is reported as 257 nM, the Ki [36] is reported as 76.9 nM and the IC50 (Mu-type opioid receptor [37]) is reported as 321 nM. It also gave an ED50 (Mus musculus [38]) of 4.19 nmol and a Kb [39] of 103 nM.
For N=C(N)NCCC[C@@H](NC(=O)[C@H](Cc1ccc(O)cc1)NC(=N)N)C(=O)N[C@@H](Cc1ccccc1)C(=O)NCCC(=O)O, the Ki [40] was greater than 1000 nM, the ED50 (Mus musculus [41]) was 0.24 mg/kg and the ED50 (Mus musculus [42]) was 0.34 pmol. The Ki (Mu-type opioid receptor [43]) was 12.9 nM, the Ki (Mu-type opioid receptor [44]) was 0.67 nM and the Ki [45] was greater than 1000 nM. It also gave a Ki [46] of 160 nM and an ED50 (Mus musculus [47]) of 19 mg/kg.
